Assays:
rat B1R = target: T1, rat B1R (Rattus norvegicus, UniProt P97583); assay: Functional investigation on the bradykinin receptor 1 (B1R), FLIPR Ca2+ assay, rB1R cells; format: cell-based; details: % inhibition rat B1R at 10 μM; CHO K1 cells transfected with rat B1R; agonist Des-Arg9 bradykinin at EC80; read-out: % Inh. (rat B1R) 10 μM
T1 construct: expressed in transfected cells; host or cells: CHO K1 cells
T1 sequence (P97583 1-337): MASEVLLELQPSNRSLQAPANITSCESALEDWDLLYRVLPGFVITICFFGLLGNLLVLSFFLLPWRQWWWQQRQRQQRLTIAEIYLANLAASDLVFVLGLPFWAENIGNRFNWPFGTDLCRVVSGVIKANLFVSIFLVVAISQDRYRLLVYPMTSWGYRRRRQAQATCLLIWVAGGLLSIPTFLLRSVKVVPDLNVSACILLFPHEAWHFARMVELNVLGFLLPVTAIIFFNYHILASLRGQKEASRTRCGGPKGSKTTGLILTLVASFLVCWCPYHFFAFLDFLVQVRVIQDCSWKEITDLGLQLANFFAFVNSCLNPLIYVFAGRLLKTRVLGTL
Experimental: (§1) The agonistic or antagonistic action of substances can be quantified on the bradykinin receptor 1 (B1R) of the human and rat species with ectopically expressing cell lines (CHO K1 cells) and with the aid of a Ca^2+-sensitive dye (Fluo-4) using a fluorescent imaging plate reader (FLIPR). The indication in % activation is based on the Ca^2+ signal after addition of Lys-Des-Arg^9 bradykinin (0.5 nM) or Des-Arg^9 bradykinin (100 nM). Antagonists lead to a suppression of the Ca^2+ influx following administration of the agonist. The % inhibition in comparison with the maximum achievable inhibition is indicated.
(§2) The agonistic or antagonistic action of substances can be determined on the bradykinin 1 receptor (B1R) of the human and rat species with the following assay. According to this assay, the Ca^2+ inflow through the channel is quantified with the aid of a Ca^2+-sensitive dye (Fluo-4 type, Molecular Probes Europe BV, Leiden, The Netherlands) in a fluorescent imaging plate reader (FLIPR, Molecular Devices, Sunnyvale, USA).
(§3) Chinese hamster ovary cells (CHO K1 cells) which are stably transfected with the human B1R gene (hB1R cells) or the B1R gene of the rat (rB1R cells) are used. For functional investigations, these cells are plated-out onto black 96-well plates with a clear base (BD Biosciences, Heidelberg, Germany or Greiner, Frickenhausen, Germany) in a density of 20,000-35,000 cells/well. Overnight, the cells are incubated at 37° C. and 5% CO2 in culture medium (hB1R cells: Nutrient Mixture Ham's F12, Gibco Invitrogen GmbH, Karlsruhe, Germany or DMEM, Sigma-Aldrich, Taufkirchen, Germany; rB1R cells: D-MEM/F12, Gibco Invitrogen, Karlsruhe, Germany) with 10 vol. % FBS (foetal bovine serum, Gibco Invitrogen GmbH, Karlsruhe, Germany or PAN Biotech GmbH, Aidenbach, Germany). On the following day the cells are loaded with 2.13 μM Fluo-4 (Molecular Probes Europe BV, Leiden, The Netherlands) in HBSS buffer (Hank's buffered saline solution, Gibco Invitrogen GmbH, Karlsruhe, Germany) with 2.5 mM probenecid (Sigma-Aldrich, Taufkirchen, Germany) and 10 mM HEPES (Sigma-Aldrich, Taufkirchen, Germany) for 60 min at 37° C. The plates are the washed twice with HBSS buffer, and HBSS buffer which additionally contains 0.1% BSA (bovine serum albumin; Sigma-Aldrich, Taufkirchen, Germany), 5.6 mM glucose and 0.05% gelatine (Merck KGaA, Darmstadt, Germany) is added. After a further incubation of 20 minutes at room temperature, the plates are inserted into the FLIPR for Ca^2+ measurement. Alternatively they are washed with buffer A (15 mM HEPES, 80 mM NaCl, 5 mM KCl, 1.2 mM CaCl2, 0.7 mM MgSO4, 2 g/l glucose, 2.5 mM probenecid) and loaded with buffer A with added 2.5 μM Fluo-4 and 0.025% Pluronic F127 (Sigma-Aldrich, Taufkirchen, Germany). The cells are then washed twice with buffer A and incubated for 30 minutes with buffer A, which additionally contains 0.05% BSA and 0.05% gelatine, at room temperature and then used for Ca^2+ measurement in the FLIPR.
(§4) The Ca^2+-dependent fluorescence is measured here before and after addition of substances (λex=488 nm, λem=540 nm). The quantification is performed by measuring the highest fluorescence intensity (FC, fluorescence counts) over time.
(§5) The FLIPR protocol comprises two additions of substance. Test substances (10 μM) are first pipetted onto the cells and the Ca^2+ inflow is compared with the control (hB1R: Lys-Des-Arg^9 bradykinin>=50 nM; rB1R: Des-Arg^9 bradykinin 10 μM). The value in % activation based on the Ca^2+ signal after addition of Lys-Des-Arg^9 bradykinin (>=50 nM) or Des-Arg^9 bradykinin (10 μM) is obtained therefrom. After incubation for 10-20 minutes, Lys-Des-Arg^9 bradykinin (hB1R) or Des-Arg^9 bradykinin (rB1R) is applied in the EC80 concentration and the inflow of Ca^2+ is likewise determined. Antagonists lead to a suppression of the Ca^2+ inflow. The % inhibition in comparison with the maximum achievable inhibition is calculated. […]

human B1R = target: T2, human B1R (Homo sapiens, UniProt P46663); assay: Functional investigation on the bradykinin receptor 1 (B1R), FLIPR Ca2+ assay, hB1R cells; format: cell-based; details: % inhibition human B1R at 10 μM; CHO K1 cells transfected with human B1R; agonist Lys-Des-Arg9 bradykinin at EC80; read-out: % Inh. (hum. B1R) 10 μM
T2 construct: expressed in transfected cells; host or cells: CHO K1 cells
T2 sequence (P46663 1-353): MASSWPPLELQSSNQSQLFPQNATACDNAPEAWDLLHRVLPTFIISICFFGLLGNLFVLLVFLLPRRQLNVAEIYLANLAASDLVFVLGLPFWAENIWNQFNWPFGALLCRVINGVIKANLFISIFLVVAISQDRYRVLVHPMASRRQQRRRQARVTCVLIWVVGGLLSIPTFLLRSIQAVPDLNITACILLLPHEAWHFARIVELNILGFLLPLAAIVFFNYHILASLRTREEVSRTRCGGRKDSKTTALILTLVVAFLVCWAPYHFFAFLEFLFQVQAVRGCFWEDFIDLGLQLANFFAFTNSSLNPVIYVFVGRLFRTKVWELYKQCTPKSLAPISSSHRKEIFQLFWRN
Experimental: as §1, §2, §3, §4, §5

SMILES | inhibition at 10 µM (rat B1R) | inhibition at 10 µM (human B1R)
COc1cc(C)c(S(=O)(=O)N2CCCC[C@H]2COCC(=O)N2CCC3(CC2)CCC(c2ccccc2)(N2CC(F)(F)C2)CC3)c(C)c1 [Compound 13, 1-(9-(3,3-Difluoroazetidin-1-yl)-9-phenyl-3-azaspiro[5.5]undecan-3-yl)-2-(((S)-1-(4-methoxy-2,6-dimethylphenylsulfonyl)piperidin-2-yl)methoxy)ethanone] | 104% | 86%
COc1cc(C)c(S(=O)(=O)N2c3ccccc3C[C@H]2COCC(=O)N2CCC3(CC2)CCC(c2ccccc2)(N(C)C)CC3)c(C)c1 [Compound 4, 1-(9-(Dimethylamino)-9-phenyl-3-azaspiro[5.5]undecan-3-yl)-2-(((S)-1-(4-methoxy-2,6-dimethylphenylsulfonyl)indolin-2-yl)methoxy)ethanone] | 102% | 98%
COc1cc(C)c(S(=O)(=O)N(CCOCC(=O)N2CCC3(CC2)CCC(c2ccccc2)(N(C)C)CC3)C2CC2)c(C)c1 [Compound 3, N-Cyclopropyl-N-(2-(2-(9-(dimethylamino)-9-phenyl-3-azaspiro[5.5]undecan-3-yl)-2-oxoethoxy)ethyl)-4-methoxy-2,6-dimethylbenzenesulfonamide] | 102% | 100%
CN(C)C1(c2cccs2)CCC2(CCN(C(=O)CC3CCCCN3S(=O)(=O)c3cccc(C(F)(F)F)c3)CC2)CC1 (stereo not drawn) [CC-10, 1-(3-Dimethylamino-3-thiophen-2-yl-9-azaspiro[5.5]undecan-9-yl)-2-[1-[[3-(trifluoromethyl)phenyl]sulfonyl]-piperidin-2-yl]-ethanone] | 79% | 84%
CN(C)C1(c2cccs2)CCC2(CCN(C(=O)CC(NS(=O)(=O)c3ccc4ccccc4c3)c3ccccc3)CC2)CC1 (stereo not drawn) [CC-15, N-[3-(3-Dimethylamino-3-thiophen-2-yl-9-azaspiro[5.5]undecan-9-yl)-3-oxo-1-phenyl-propyl]-naphthalene-2-sulfonic acid amide] | 100% | 69%
COc1cc(C)c(S(=O)(=O)N2CCCCC2CCCC(=O)N2CCC3(CC2)CCC(c2cccs2)(N(C)C)CC3)c(C)c1 (stereo not drawn) [CC-16, 1-(3-Dimethylamino-3-thiophen-2-yl-9-azaspiro[5.5]undecan-9-yl)-4-[1-[(4-methoxy-2,6-dimethyl-phenyl)sulfonyl]-piperidin-2-yl]-butan-1-one] | 102% | 99%
Cc1cccc(Cl)c1S(=O)(=O)N1CCCCC1COCC(=O)N1CCC2(CC1)CCC(c1cccs1)(N(C)C)CC2 (stereo not drawn) [CC-13, 2-[[1-[(2-Chloro-6-methyl-phenyl)sulfonyl]-piperidin-2-yl]-methoxy]-1-(3-dimethylamino-3-thiophen-2-yl-9-azaspiro[5.5]undecan-9-yl)-ethanone] | 98% | 100%
CN(C)C1(c2ccccc2)CCC2(CCN(C(=O)CC3CCCCN3S(=O)(=O)c3cccc(C(F)(F)F)c3)CC2)CC1 (stereo not drawn) [Compound 9, 1-(9-(Dimethylamino)-9-phenyl-3-azaspiro[5.5]undecan-3-yl)-2-(1-(3-(trifluoromethyl)phenylsulfonyl)piperidin-2-yl)ethan-1-one] | 38% | 92%
COc1cc(C)c(S(=O)(=O)N2CCCCC2COCC(=O)N2CCC3(CC2)CCC(c2cccc(F)c2)(N2CCCC2)CC3)c(C)c1 (stereo not drawn) [CC-03, 1-[3-(3-Fluorophenyl)-3-pyrrolidin-1-yl-9-azaspiro[5.5]undecan-9-yl]-2-[[1-[(4-methoxy-2,6-dimethyl-phenyl)sulfonyl]-piperidin-2-yl]-methoxy]-ethanone] | 99% | 100%
Cc1cc(S(=O)(=O)N2CCCCC2CCC(=O)N2CCC3(CC2)CCC(c2cccc(F)c2)(N2CCCC2)CC3)c(C)cc1Cl (stereo not drawn) [CC-07, 3-[1-[(4-Chloro-2,5-dimethyl-phenyl)sulfonyl]-piperidin-2-yl]-1-[3-(3-fluorophenyl)-3-pyrrolidin-1-yl-9-azaspiro[5.5]undecan-9-yl]-propan-1-one] | 86% | 99%
O=C(CC1CCCCN1S(=O)(=O)c1cccc(C(F)(F)F)c1)N1CCC2(CC1)CCC(c1cccc(F)c1)(N1CCCC1)CC2 (stereo not drawn) [CC-01, 1-[3-(3-Fluorophenyl)-3-pyrrolidin-1-yl-9-azaspiro[5.5]undecan-9-yl]-2-[1-[[3-(trifluoromethyl)phenyl]sulfonyl]-piperidin-2-yl]-ethanone] | 75% | 73%
COc1cc(C)c(S(=O)(=O)N2CCCC[C@H]2COCC(=O)N2CCC3(CC2)CCC(c2ccccc2)(N2CCC2)CC3)c(C)c1 [Compound 12, 1-(9-(Azetidin-1-yl)-9-phenyl-3-azaspiro[5.5]undecan-3-yl)-2-(((S)-1-(4-methoxy-2,6-dimethylphenylsulfonyl)piperidin-2-yl)methoxy)ethanone] | 102% | 100%
Cc1cccc(Cl)c1S(=O)(=O)N(CCOCC(=O)N1CCC2(CC1)CCC(c1cccs1)(N(C)C)CC2)C1CC1 [CC-09, 2-Chloro-N-cyclopropyl-N-[2-[2-(3-dimethylamino-3-thiophen-2-yl-9-azaspiro[5.5]undecan-9-yl)-2-oxo-ethoxy]-ethyl]-6-methyl-benzenesulfonic acid amide] | 97% | 100%
COc1cc(C)c(S(=O)(=O)N2CCCCC2COCC(=O)N2CCC3(CC2)CCC(c2ccccc2)(N2CCCC2)CC3)c(C)c1 (stereo not drawn) [Compound 1, 2-((1-(4-Methoxy-2,6-dimethylphenylsulfonyl)piperidin-2-yl)methoxy)-1-(9-phenyl-9-(pyrrolidin-1-yl)-3-azaspiro[5.5]undecan-3-yl)ethanone] | 92% | 100%
CN(C)C1(c2ccccc2)CCC2(CCN(C(=O)C[C@@H](NS(=O)(=O)c3ccc4ccccc4c3)c3ccccc3)CC2)CC1 [Compound 5, N-((1R)-3-(9-(Dimethylamino)-9-phenyl-3-azaspiro[5.5]undecan-3-yl)-3-oxo-1-phenylpropyl)naphthalene-2-sulfonamide] | 99% | 77%

From patent US8278319B2, “Substituted spiroamine compounds” (Gruenenthal GmbH, priority 2008, dated 2012)
